In patent US20260092074A1, “Annelated Pyridines as Steroidogenesis Inhibitors, Preparation Method and Use Thereof” (Guangzhou Vinnocent Pharmaceutical Limited, priority 2022, published 2026):

Experiments:
[1] = target: T1, human CYP11B1 (Homo sapiens, UniProt P15538); test: Inhibition of hCYP11B1 in transfected V79 cells; assay type: cell-based; details: hamster V79 cells expressing human CYP11B1; substrate 11-deoxycortisol 200 nM
T1 construct: expressed in transfected cells
T1 sequence (P15538 25-503): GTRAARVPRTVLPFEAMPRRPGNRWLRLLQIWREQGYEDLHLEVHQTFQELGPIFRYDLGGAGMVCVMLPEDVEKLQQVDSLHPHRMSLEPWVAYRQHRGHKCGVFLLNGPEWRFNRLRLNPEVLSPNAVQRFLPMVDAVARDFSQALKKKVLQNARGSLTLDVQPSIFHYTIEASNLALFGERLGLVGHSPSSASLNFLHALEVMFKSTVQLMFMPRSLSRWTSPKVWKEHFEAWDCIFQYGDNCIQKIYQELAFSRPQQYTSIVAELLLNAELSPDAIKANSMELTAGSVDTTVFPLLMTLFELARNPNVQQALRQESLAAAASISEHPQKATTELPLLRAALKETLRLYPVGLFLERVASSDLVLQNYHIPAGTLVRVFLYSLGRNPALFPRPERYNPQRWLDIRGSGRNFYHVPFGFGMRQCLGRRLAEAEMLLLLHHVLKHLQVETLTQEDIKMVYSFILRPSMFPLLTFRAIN
Description: (§1) Genes of human CYP11B1 and rat NADPH-P450 reductase were transfected into hamster V79 cells using a lentivirus vector, and stably-expressing cell lines were selected by taking advantages of the associated puromycin-resistance gene. Cultured cells were diluted and seeded in a 96-well plate with an amount of approximately 10,000 per well. After pre-incubation with suitable concentrations of the test compounds for 2 hours, 11-deoxycortisol of 200 nM was added as the substrate to initiate the catalytic reaction. After further incubation for 30 minutes, it was quenched with ethyl acetate. Subsequently, the substrate and product(s) were quantified using LC-MS/MS or HPLC at 260 nm, and the IC50 values were calculated according to inhibitory percentage.

[2] = target: T2, human CYP11B2 (Homo sapiens, UniProt P19099); test: Inhibition of hCYP11B2 in transfected V79 cells; assay type: cell-based; details: hamster V79 cells expressing human CYP11B2; substrate 11-deoxycorticosterone 200 nM
T2 construct: expressed in transfected cells
T2 sequence (P19099 25-503): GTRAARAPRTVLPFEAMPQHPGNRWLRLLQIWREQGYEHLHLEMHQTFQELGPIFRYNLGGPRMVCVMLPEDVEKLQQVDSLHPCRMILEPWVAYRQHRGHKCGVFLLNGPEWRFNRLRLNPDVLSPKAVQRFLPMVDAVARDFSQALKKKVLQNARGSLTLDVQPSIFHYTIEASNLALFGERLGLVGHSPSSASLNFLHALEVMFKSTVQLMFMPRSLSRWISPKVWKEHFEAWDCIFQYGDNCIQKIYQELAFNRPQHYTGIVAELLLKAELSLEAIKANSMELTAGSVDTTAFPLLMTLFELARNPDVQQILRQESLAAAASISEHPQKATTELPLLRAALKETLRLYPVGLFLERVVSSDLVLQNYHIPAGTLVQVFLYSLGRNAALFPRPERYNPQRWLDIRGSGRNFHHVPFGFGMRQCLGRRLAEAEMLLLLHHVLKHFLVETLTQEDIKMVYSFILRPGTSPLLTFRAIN
Description: as §1, with “CYP11B2” for “CYP11B1”, “11-deoxycorticosterone” for “11-deoxycortisol”

| IC50 [1] | IC50 [2] | SMILES |
| --- | --- | --- |
| 305 nM | 4.6 nM | N#Cc1ccc(-c2cncc3c2CCN3C(=O)c2ccccc2F)cc1 [C31, 4-(1-(2-Fluorobenzoyl)-2,3-dihydro-1H-pyrrolo[2,3-c]pyridin-4-yl)benzonitrile] |
| 245 nM | 25 nM | Cc1ccc(C(=O)N2CCc3c(-c4ccc(C#N)cc4)cncc32)cc1 [C33, 4-(1-(4-Methylbenzoyl)-2,3-dihydro-1H-pyrrolo[2,3-c]pyridin-4-yl)benzonitrile] |
| 284 nM | 22 nM | COc1ccccc1C(=O)N1CCc2c(-c3ccc(C#N)cc3)cncc21 [C34, 4-(1-(2-Methoxybenzoyl)-2,3-dihydro-1H-pyrrolo[2,3-c]pyridin-4-yl)benzonitrile] |
| 459 nM | 31 nM | N#Cc1ccc(-c2cncc3c2CCN3C(=O)c2ccccc2[N+](=O)[O-])cc1 [C35, 4-(1-(2-Nitrobenzoyl)-2,3-dihydro-1H-pyrrolo[2,3-c]pyridin-4-yl)benzonitrile] |
| 297 nM | 28 nM | Cc1ccccc1C(=O)N1CCc2c(-c3ccc(C#N)cc3)cncc21 [C36, 4-(1-(2-Methylbenzoyl)-2,3-dihydro-1H-pyrrolo[2,3-c]pyridin-4-yl)benzonitrile] |
| 766 nM | 60 nM | N#Cc1ccc(-c2cncc3c2CCN3C(=O)c2cccc(C#N)c2)cc1 [C37, 3-(4-(4-Cyanophenyl)-2,3-dihydro-1H-pyrrolo[2,3-c]pyridine-1-carbonyl)benzonitrile] |
| 606 nM | 40 nM | N#Cc1ccc(-c2cncc3c2CCN3C(=O)c2ccc(Cl)cc2)cc1 [C38, 4-(1-(4-Chlorobenzoyl)-2,3-dihydro-1H-pyrrolo[2,3-c]pyridin-4-yl)benzonitrile] |
| 298 nM | 23 nM | N#Cc1ccc(-c2cncc3c2CCN3C(=O)c2cccc(Cl)c2)cc1 [C39, 4-(1-(3-Chlorobenzoyl)-2,3-dihydro-1H-pyrrolo[2,3-c]pyridin-4-yl)benzonitrile] |
| 352 nM | 29 nM | Cc1cccc(C(=O)N2CCc3c(-c4ccc(C#N)cc4)cncc32)c1 [C40, 4-(1-(3-Methylbenzoyl)-2,3-dihydro-1H-pyrrolo[2,3-c]pyridin-4-yl)benzonitrile] |
| 353 nM | 40 nM | N#Cc1ccc(-c2cncc3c2CCN3C(=O)c2ccccc2)cc1 [C41, 4-(1-Benzoyl-2,3-dihydro-1H-pyrrolo[2,3-c]pyridin-4-yl)benzonitrile] |

Continued, molecule first:

| SMILES | IC50 [1] | IC50 [2] |
| --- | --- | --- |
| N#Cc1ccc(-c2cncc3c2CCN3C(=O)c2ccc([N+](=O)[O-])cc2)cc1 [C30, 4-(1-(4-Nitrobenzoyl)-2,3-dihydro-1H-pyrrolo[2,3-c]pyridin-4-yl)benzonitrile] | 472 nM | 11 nM |
| N#Cc1ccc(-c2cncc3c2CCN3C(=O)c2ccccc2C(F)(F)F)cc1 [C32, 4-(1-(2-(Trifluoromethyl)benzoyl)-2,3-dihydro-1H-pyrrolo[2,3-c]pyridin-4-yl)benzonitrile] | 233 nM | 18 nM |
| CC(C)(C)C(=O)N1CCc2c(-c3ccc(C#N)cc3)cncc21 [C42, 4-(1-Pivaloyl-2,3-dihydro-1H-pyrrolo[2,3-c]pyridin-4-yl)benzonitrile] | 1570 nM | 45 nM |
| N#Cc1ccc(-c2cncc3c2CCN3C(=O)CCl)cc1 [C43, 4-(1-(2-Chloroacetyl)-2,3-dihydro-1H-pyrrolo[2,3-c]pyridin-4-yl)benzonitrile] | 897 nM | 99 nM |
| N#Cc1ccc(-c2cncc3c2CCN3C(=O)c2ccco2)cc1 [C44, 4-(1-(Furan-2-carbonyl)-2,3-dihydro-1H-pyrrolo[2,3-c]pyridin-4-yl)benzonitrile] | 139 nM | 27 nM |
| Cc1ccsc1C(=O)N1CCc2c(-c3ccc(C#N)cc3)cncc21 [C45, 4-(1-(3-Methylthiophene-2-carbonyl)-2,3-dihydro-1H-pyrrolo[2,3-c]pyridin-4-yl)benzonitrile] | 152 nM | 20 nM |
| N#Cc1ccc(-c2cncc3c2CCN3C(=O)c2cccs2)cc1 [C46, 4-(1-(Thiophene-2-carbonyl)-2,3-dihydro-1H-pyrrolo[2,3-c]pyridin-4-yl)benzonitrile] | 274 nM | 5.4 nM |
| COC(=O)c1ccc(C(=O)N2CCc3c(-c4ccc(C#N)cc4)cncc32)cc1 [C47] | 19 nM | 17 nM |
| N#Cc1ccc(C(=O)N2CCc3c(-c4ccc(C#N)cc4)cncc32)cc1 [C48, 4-(1-(4-Cyanobenzoyl)-2,3-dihydro-1H-pyrrolo[2,3-c]pyridin-4-yl)benzonitrile] | 762 nM | 7.3 nM |
| N#Cc1ccc(-c2cncc3c2CCN3C(=O)c2ccc(CBr)cc2)cc1 [C49, 4-(1-(4-(Bromomethyl)benzoyl)-2,3-dihydro-1H-pyrrolo[2,3-c]pyridin-4-yl)benzonitrile] | 971 nM | 25 nM |
| O=C(c1ccccc1F)N1CCc2c(-c3ccc4[nH]ncc4c3)cncc21 [C50, (4-(1H-Indazol-5-yl)-2,3-dihydro-1H-pyrrolo[2,3-c]pyridin-1-yl)(2-fluorophenyl)methanone] | 1270 nM | 97 nM |
| Cn1ncc2cc(-c3cncc4c3CCN4C(=O)c3ccccc3F)ccc21 [C51, (2-Fluorophenyl)(4-(1-methyl-1H-indazol-5-yl)-2,3-dihydro-1H-pyrrolo[2,3-c]pyridin-1-yl)methanone] | 4250 nM | 23 nM |
| O=C(c1ccccc1F)N1CCc2c(-c3cccc(F)c3)cncc21 [C52, (2-fluorophenyl)(4-(3-fluorophenyl)-2,3-dihydro-1H-pyrrolo[2,3-c]pyridin-1-yl)methanone] | 891 nM | 44 nM |
| O=C(c1ccccc1F)N1CCc2c(-c3cccc([N+](=O)[O-])c3)cncc21 [C53, (2-Fluorophenyl)(4-(3-nitrophenyl)-2,3-dihydro-1H-pyrrolo[2,3-c]pyridin-1-yl)methanone] | 378 nM | 11 nM |
| O=C(c1ccccc1F)N1CCc2c(-c3ccc(Cl)cc3)cncc21 [C54, (4-(4-Chlorophenyl)-2,3-dihydro-1H-pyrrolo[2,3-c]pyridin-1-yl)(2-fluorophenyl)methanone] | 895 nM | 45 nM |
| N#Cc1cccc(-c2cncc3c2CCN3C(=O)c2ccccc2F)c1 [C55, 3-(1-(2-Fluorobenzoyl)-2,3-dihydro-1H-pyrrolo[2,3-c]pyridin-4-yl)benzonitrile] | 973 nM | 29 nM |
| O=C(c1ccccc1F)N1CCc2c(-c3ccoc3)cncc21 [C56, (2-Fluorophenyl)(4-(furan-3-yl)-2,3-dihydro-1H-pyrrolo[2,3-c]pyridin-1-yl)methanone] | 522 nM | 103 nM |
| O=C(c1ccccc1F)N1CCc2c(-c3ccc4nccn4c3)cncc21 [C57, (2-Fluorophenyl)(4-(imidazo[1,2-a]pyridin-6-yl)-2,3-dihydro-1H-pyrrolo[2,3-c]pyridin-1-yl)methanone] | 876 nM | 27 nM |
| O=C(c1ccccc1F)N1CCc2c(-c3ccc4ncsc4c3)cncc21 [C58, (4-(benzo[d]thiazol-6-yl)-2,3-dihydro-1H-pyrrolo[2,3-c]pyridin-1-yl)(2-fluorophenyl)methanone] | 2640 nM | 75 nM |
| O=C(c1ccccc1F)N1CCc2c(-c3cc4ccccc4[nH]3)cncc21 [C59, (4-(1H-indol-2-yl)-2,3-dihydro-1H-pyrrolo[2,3-c]pyridin-1-yl)(2-fluorophenyl)methanone] | 2740 nM | 131 nM |
| O=C(c1ccccc1F)N1CCc2c(-c3cc4ccccc4o3)cncc21 [C60, (4-(Benzofuran-2-yl)-2,3-dihydro-1H-pyrrolo[2,3-c]pyridin-1-yl)(2-fluorophenyl)methanone] | > 10000 nM | 152 nM |
